The record followed here is US12012404B2, “Pyrimidoheterocyclic compounds and application thereof” (D3 BIO (WUXI) CO., LTD., priority 2020, dated 2024).

For series [1], the system named is human pancreatic cancer Mia PaCa-2 cells. As to the kind of experiment: Pharmacodynamics in vivo in subcutaneously transplanted tumor model of Mia PaCa-2 cells. Set-up: species or system Balb/c Nude mice. Particulars: day 22 of administration. Here is the method:
Assay on pharmacodynamics in vivo in a subcutaneously transplanted tumor model of human pancreatic cancer Mia PaCa-2 cells in Balb/c Nude mice
Cell culture: Human pancreatic cancer Mia PaCa-2 cells (ATCC-CRL-1420) were cultured in monolayer in vitro in DMEM medium with 10% fetal calf serum and 2.5% horse serum in a 37° C., 5% carbon dioxide incubator. Cells were passaged by routine digestion with trypsin-EDTA twice a week. When the cell saturation reached 80%-90% and the cell number met the requirement, the cells were harvested, counted, and resuspended in an appropriate amount of PBS. Matrigel was added in a ratio of 1:1 to obtain a cell suspension with a cell density of 25×10^6 cells/mL.
Cell inoculation: 0.2 mL (5×10^6 cells/mouse) of Mia PaCa-2 cells (plus Matrigel, 1:1 by volume) were subcutaneously inoculated into the right back of each mouse. When the average tumor volume reached 190 mm^3, mice were randomized into groups based on tumor volume and administration was initiated according to the protocol in Table 10.
Tumor diameter was measured with vernier caliper twice a week. The calculation formula of tumor volume was: V=0.5a×b^2, where a and b represent the long and short diameters of the tumor, respectively.
The anti-tumor efficacy of compounds was evaluated by TGI (%) or relative tumor proliferation rate T/C (%). Relative tumor proliferation rate T/C (%)=TRTV/CRTV×100% (TRTV: RTV in a treatment group; CRTV: RTV in a negative control group). The relative tumor volume (RTV) was calculated according to results of tumor measurement, and the calculation formula was RTV=Vt/VO, where VO was average tumor volume measured at the time of administration by group (i.e., DO), and Vt was average tumor volume at the time of a certain measurement. For TRTV and CRTV, data on the same day were used.
TGI (%) reflected tumor growth inhibition rate. TGI (%)=[(1−(average tumor volume at the end of administration of a treatment group−average tumor volume at the beginning of administration of the treatment group))/(average tumor volume at the end of treatment of a vehicle control group−average tumor volume at the beginning of treatment of the vehicle control group)]×100%.

The nature of series [2]: Metabolic stability in hepatocytes, SD rats. The series is classed as in vitro ADME. Here is the method:
Purpose of the assay: Metabolic stabilities of assay compounds in hepatocytes of CD-1 mice, SD rats, beagle dogs, cynomolgus monkeys, and human were assayed, respectively.
Procedure of the assay: Several 96-well sample precipitation plates were prepared and named T0, T15, T30, T60, T90, T120, TO-MC, T120-MC and blank substrates, respectively. The recovery medium and incubation medium were taken out in advance and placed in a 37° C. water bath for pre-heating. Cryopreserved hepatocytes were removed from the liquid nitrogen tank and immediately immersed in a 37° C. water bath (approximately 90 seconds). After the cryopreserved hepatocytes had thawed and loosened, they were poured into a centrifuge tube containing 40 mL of recovery medium, and the tube was gently inverted to allow the cells to be resuspended in the recovery medium. The cells were centrifuged at 100×g at room temperature for 5 min, and the supernatant was removed. The hepatocytes were resuspended in an appropriate volume of incubation medium, and the cell viability was calculated by Trypan Blue staining method. 198 μL of hepatocyte suspension (0.51×10^6 cells/mL) was added to the preheated incubation plate. For the culture medium control group, 198 μL of hepatocyte-free incubation medium was added to T0-MC and T120-MC incubation plate. All incubation plates were pre-incubated in a 37° C. incubator for 10 minutes. Then 2 μL of working solutions of the assay sample and the control compound were added, respectively, and the mixture was mixed well. The incubation plate was immediately put into the shaker in the incubator, and the reaction was initiated while starting the timer. For each time point of each compound, 2 duplicate samples were prepared. The incubation conditions were 37° C., saturated humidity, and 5% CO2. In the assay system, the final concentration of the assay sample was 1 μM, the final concentration of the control sample was 3 μM, the final concentration of hepatocytes was 0.5×10^6 cells/mL, and the final concentration of the total organic solvent was 0.96%, of which the final concentration of DMSO was 0.1%. At the end of the incubation for the corresponding time point, the incubation plate was taken out, and 25 μL of a mixture of compound and control compound with cells was added to the sample plate containing 125 μL of stop solution (200 ng/mL tolbutamide and labetalol in acetonitrile). For the Blank sample plate, 25 μL of hepatocyte-free incubation medium was added directly. After sealing, all sample plates were shaken on a shaker at 600 rpm for 10 minutes, and then centrifuged at 3220×g for 20 minutes. Supernatants of the assay sample and the control sample were diluted with ultrapure water at a ratio of 1:3. All samples were mixed well and analyzed by LC/MS/MS.

Series [3] can be described thus: Stability assay in whole blood, SD rats. The series is classed as in vitro ADME. Particulars: 5 μM, 37° C. Here is the method: Purpose of the assay: Stabilities of the assay compounds in whole blood of CD-1 mice, SD rats, Beagle dogs and cynomolgus monkeys were assayed, respectively.
Procedure of the assay: On the day of the assay or the day before the assay, fresh whole blood from CD-1 mice, SD rats, beagle dogs, and cynomolgus monkeys was collected using anticoagulant EDTA-K2. Prior to the start of the assay, the whole blood was mixed with PBS in 1:1 (v:v) and the mixture was preheated in a 37° C. water bath for 10-20 minutes. […] […] All samples were incubated in a 37° C. water bath. The final incubation concentration of the compound was 5 μM and the final incubation concentration of the control compound was 2 μM. At the end of incubation for each time point, the corresponding incubation plate was removed and 100 μL of ultrapure water was immediately added to the corresponding sample wells, and mixed well. 800 μL of a solution of 200 ng/mL tolbutamide and labetalol in acetonitrile was added to precipitate the protein. The sample plates were sealed and shaken well, and then centrifuged at 3220×g for 20 min. 150 μL of supernatant was taken out and analyzed by LC/MS/MS.

In general, T/C refers to the result in the treated group divided by that in the control group, in per cent. Usually TGI stands for how far tumour growth fell short of that in controls. Read a low TGI as a weaker effect on the tumour. In series [1] (10 mg/kg PO QD), `C=C(F)C(=O)N1CCN(c2nc(OCC3CCCN3C)nc3c2COC(c2c(F)c(N)cc(C)c2C(F)(F)F)C3)CC1CC#N.Cl` (single isomer, unassigned) [Compound 8B hydrochloride] displayed an Average tumor volume of 745.84 mm^3, a T/C of 36.99% and a TGI of 66.89%. Further, in series [1] (30 mg/kg PO QD), the Average tumor volume was 227.15 mm^3, the T/C was 11.28% and the TGI was 94.23%. In series [2] (1 μM), the “CLint(hep)” value is on record as 7.5 μL/min/10^6, the “CLint(liver)” value was found to be 35.0 mL/min/kg and the T1/2 is recorded as 185.2 min. The “Detection of assay compound content within” value in series [3] amounted to 104%.
As a reminder, the half-life is the time needed for the level to fall by half in the phase considered. In series [1] (10 mg/kg PO QD), `C=C(F)C(=O)N1CCN(c2nc(OC[C@@]34CCCN3C[C@H](F)C4)nc3c2COC(c2c(F)c(N)cc(C)c2C(F)(F)F)C3)C[C@@H]1CC#N` (some centres unmarked) [Compound 17] returned an Average tumor volume of 249.87 mm^3, a T/C of 12.39% and an inhibition of tumour growth (TGI) of 93.06%. In series [1] (30 mg/kg PO QD), this molecule came in with an Average tumor volume of 124.14 mm^3, a T/C of 6.16% and a TGI of 99.64%. Moreover, the “CLint(hep)” value in series [2] (1 μM) amounted to 67.4 μL/min/10^6. The molecule also returned a half-life at 1 μM in series [2] (rat, cryopreserved hepatocytes) of 20.6 min. Besides, the CLint scaled at 1 μM in series [2] (rat, cryopreserved hepatocytes, read-out: CLint(liver)) was 315 mL/min/kg. Further, the “Detection of assay compound content within” value in series [3] was 115%.
